Measured values taken from the supplement of paper PMC10307832.

How the values were obtained:
Experiment in all cases: relative viability (nuclei count vs DMSO), 5 days (fraction); higher = more cells survive
Ibrutinib + Crizotinib = compound: C=CC(=O)N1CCC[C@@H](n2nc(-c3ccc(Oc4ccccc4)cc3)c3c(N)ncnc32)C1 [Ibrutinib] + C[C@@H](Oc1cc(-c2cnn(C3CCNCC3)c2)cnc1N)c1c(Cl)ccc(F)c1Cl [Crizotinib] (partner 1 µM)
How it was run: (§1)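 For relative viability, nuclei counts in treated wells were divided by those in vehicle wells. Lung cancer cell lines had been pin-tool dosed in 1536-well plates the day after seeding and cultured for 5 days, then fixed and stained in one step (final 0.05% Triton X-100, 1% formaldehyde, 1 ug/ml Hoechst) and imaged at 4×. Doses were one drug alone or a fixed anchor-drug dose plus five library-drug doses (not always all listed) in √10 steps, and values are duplicate-plate medians.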

Ibrutinib + Phenformin = compound: C=CC(=O)N1CCC[C@@H](n2nc(-c3ccc(Oc4ccccc4)cc3)c3c(N)ncnc32)C1 [Ibrutinib] + N=C(N)NC(=N)NCCc1ccccc1 [Phenformin] (partner 250 µM)
How it was run: as §1

Ibrutinib + Olaparib = compound: C=CC(=O)N1CCC[C@@H](n2nc(-c3ccc(Oc4ccccc4)cc3)c3c(N)ncnc32)C1 [Ibrutinib] + O=C(c1cc(Cc2n[nH]c(=O)c3ccccc23)ccc1F)N1CCN(C(=O)C2CC2)CC1 [Olaparib] (partner 8 µM)
How it was run: as §1

PAC-1 + Bortezomib = compound: C=CCc1cccc(/C=N/NC(=O)CN2CCN(Cc3ccccc3)CC2)c1O [PAC-1] + CC(C)C[C@H](NC(=O)[C@H](Cc1ccccc1)NC(=O)c1cnccn1)B(O)O [Bortezomib] (partner 0.002 µM)
How it was run: as §1

Cell Line	relative viability (Ibrutinib + Crizotinib; first compound 0.005 µM)	relative viability (Ibrutinib + Crizotinib; first compound 0.01581 µM)	relative viability (Ibrutinib + Crizotinib; first compound 0.05 µM)	relative viability (Ibrutinib + Crizotinib; first compound 0.1581 µM)	relative viability (Ibrutinib + Crizotinib; first compound 0.5 µM)	relative viability (Ibrutinib + Phenformin; first compound 0.005 µM)	relative viability (Ibrutinib + Phenformin; first compound 0.01581 µM)	relative viability (Ibrutinib + Phenformin; first compound 0.05 µM)	relative viability (Ibrutinib + Phenformin; first compound 0.1581 µM)	relative viability (Ibrutinib + Phenformin; first compound 0.5 µM)	relative viability (Ibrutinib + Olaparib; first compound 0.005 µM)	relative viability (Ibrutinib + Olaparib; first compound 0.01581 µM)	relative viability (Ibrutinib + Olaparib; first compound 0.05 µM)	relative viability (Ibrutinib + Olaparib; first compound 0.1581 µM)	relative viability (Ibrutinib + Olaparib; first compound 0.5 µM)	relative viability (PAC-1 + Bortezomib; first compound 0.02 µM)	relative viability (PAC-1 + Bortezomib; first compound 0.06325 µM)	relative viability (PAC-1 + Bortezomib; first compound 0.2 µM)	relative viability (PAC-1 + Bortezomib; first compound 2 µM)
LU99A	0.522	0.605	0.619	0.644	0.644	0.889	0.8	0.837	1.05	0.846	0.254	0.272	0.285	0.291	0.25	1.1	1.11	1.07	1.05
NCI-H522						0.627	0.545	0.688	0.582	0.622	0.587	0.605	0.653	0.644	0.573				
LCLC-97TM1	0.365	0.369		0.553	0.313	0.452	0.457	0.449	0.504	0.411	0.383	0.334	0.517	0.498	0.389	0.437	0.901	0.668	0.794
NCI-H2023	0.55	0.637	0.423	0.603	0.356	0.376	0.392	0.402	0.45	0.357	0.492	0.528	0.457	0.516	0.542	1.2	1.04	0.87	1.02
LC-2-ad		0.449	0.546	0.476	0.419	0.552	0.579	0.56	0.478	0.531	0.802	0.719	0.859	0.741	0.739	0.981	0.971	0.999	0.957
NCI-H1975	0.986	0.859	0.88	0.96	0.558	0.452	0.372	0.379	0.416	0.215	0.886	0.775	0.688	0.802	0.482	0.35	0.396	0.378	0.386
NCI-H1793							0.313	0.281	0.318	0.282	0.669	0.562	0.582	0.833	0.4				
Calu-6	0.911	0.576	0.802	0.723	0.872						0.673	0.582	0.576	0.599	0.589	1.07	1.09	1	1.1
HCC-366	0.623	0.525	0.506	0.45	0.514	0.63	0.595	0.593	0.543	0.665	0.401	0.33	0.357	0.403	0.381	1.01	1.04	1.07	1.14
NCI-H2347	0.679	0.684	0.739	0.592	0.696		0.447	0.332	0.294	0.239	0.659	0.512	0.626	0.619	0.536	1.07	0.912	1.08	0.875
NCI-H2405		0.886	0.779	0.824	0.8	0.383	0.384	0.387	0.264	0.369	0.877	0.877			0.953	0.981	1.02	0.959	0.977
NCI-H1563	0.815	0.874	0.803	0.875	0.8	0.695	0.668	0.652	0.65	0.657						0.854	0.833	0.844	0.916
NCI-H1944	0.99	0.88	0.963		0.782	0.202	0.176	0.195	0.177	0.182	0.411	0.404	0.413	0.387	0.359				
NCI-H358	0.706	0.45	0.401	0.682	0.303	0.23		0.178	0.202	0.174	0.469	0.508		0.747	0.248				
IA-LM	0.75	0.8	1.11	1	0.947						0.881	0.891	0.797	0.936	1.04	0.803	0.756	0.783	0.807
NCI-H1299	1	0.897	0.957	0.977	0.965						1	0.964	0.978	0.98	0.924	1.02	0.99	0.975	0.993
NCI-H1648											0.626	0.552	0.653	0.766	0.481				
NCI-H1703			0.839	0.934	0.729						0.317	0.289	0.449	0.4	0.327	0.29	0.268	0.4	0.353
NCI-H2170	1.07	0.824	0.452	1.19	0.227	0.431	0.42	0.395	0.39	0.36	0.568	0.502	0.433	0.607	0.156				
NCI-H2342						0.472	0.56	0.57	0.455	0.452	0.422	0.413	0.438	0.457	0.268				
NCI-H1623						0.571	0.532	0.509	0.347	0.27									
SW 900								0.588	0.669	0.618	0.886	0.694	0.832	1.02	0.752				
NCI-H1395						0.281	0.404	0.468	0.442	0.405	0.475	0.472	0.469	0.468	0.449				
